Here are results for 1 compound from patent publication EP4692072A1, “PHOTOCHROMIC COMPOUND, PROPARGYL ALCOHOL COMPOUND, CURABLE COMPOSITION, OPTICAL ARTICLE, LENS, AND SPECTACLES” (TOKUYAMA CORPORATION, priority 2023, dated 2024).

Common to all, as to assay type: physicochemical
The nature of data set [1]: Accelerated deterioration (xenon weather meter X25, 120 hours) of photochromic cured product prepared by kneading method. The note with it: 1 mm cured product, 0.106 mmol per 100 g monomer, A120/A0×100 after 120 hours xenon weather meter. The method, then:
(§1) • [1] Maximum Absorption Wavelength (λmax): The maximum absorption wavelength after color development, measured using a spectrophotometer (instantaneous multichannel photodetector MCPD3000) manufactured by Otsuka Electronics Co., Ltd. was used as an indicator for the color tone during the color development. • [2] 23°C Color Optical Density (A23): A difference between an absorbancy measured after light irradiation at 23°C for 300 seconds {ε(300)} and an absorbancy without light irradiation ε(0) at the maximum absorption wavelength was used as an indicator for the color optical density. […] 23°C color fading half-life [τ1/2 (sec.)]: A time required for the absorbancy of the sample at the maximum absorption wavelength to decrease to 1/2 of {ε(300)-ε(0)} when the light irradiation was terminated after the light irradiation at 23°C for 300 seconds, was used as an indicator for the color fading speed. The shorter this time, the higher the color fading speed. • [4] Residual rate (A120/A0×100): The obtained photochromic plastic lens was subjected to accelerated deterioration using a xenon weather meter X25 manufactured by Suga Test Instruments Co., Ltd. for 120 hours. Subsequently, the color optical density was evaluated before and after the test, then a color optical density before the test (A0) and a color optical density after the test (A120) were measured, and a ratio (A120/A0) was defined as a residual rate. The residual rate was used as an indicator for a color developing durability. The higher the residual rate, the higher the color developing durability. The results of Examples 26, 50, and Comparative Examples 1 to 8 are summarized in Table 1, and the results of Examples 27 to 49 are summarized in Tables 2 and 3.
(§2) First, the photochromic compound obtained in Example 1, additives, and a polymerizable compound were mixed to obtain a curable composition.
(§3) As the polymerizable compound, a combination of the following polymerizable monomers was used. • 1,3-bis(isocyanatomethyl)cyclohexane: 36.7 parts by mass Pentaerythritol tetrakis(3-mercaptopropionate): 39.4 parts by mass • Polyoxyethylene polyoxypropylene lauryl ether (Wonder Surf 140 manufactured by Aoki Oil Industrial Co., Ltd.): 17.4 parts by mass • 1-decanethiol: 2.8 parts by mass • RX-1 adjusted according to the method described in Patent Document 13: 3.8 parts by mass
(§4) Note that the photochromic compound was added to the curable composition so that the amount of the photochromic compound was 0.106 mmol based on 100 g of the total amount of the polymerizable monomer. The following additives were used: Dimethyltin dichloride • : 0.05 part by mass • Irganox 245: 0.1 part by mass • 2-ethylhexyl 4-methoxycinnamate: 0.6 part by mass
(§5) The prepared curable composition was thoroughly defoamed, then injected into a glass mold having a 1 mm gap, and polymerized by cast polymerization. The polymerization was carried out in an air furnace while gradually raising the temperature from 27°C to 120°C over 18 hours. After the polymerization, the cured product was removed from the glass mold to obtain a photochromic cured product having a thickness of 1 mm. The obtained photochromic cured product was evaluated in the same manner as in Example 26.
(§6) (Examples 85 to 99, and Comparative Example 14 to 18) Photochromic cured products were prepared using photochromic compounds presented in Tables 6 and 7 in the same manner as in Example 84. The results of Examples 84 and 85 and Comparative Examples 14 to 18 are summarized in Table 6, and the results of Examples 86 to 99 are summarized in Table 7.

Data set [2] can be described thus: Photochromic properties of photochromic laminate (plastic lens) prepared by coating method. The note with it: 40 µm photochromic layer on thiourethane lens, 0.25 mmol compound per 100 g monomers, after color development.
Text: (§7) First, the photochromic compound obtained in Example 1, a photoinitiator, and a polymerizable compound were mixed to obtain a curable composition.
(§8) Polyethylene glycol dimethacrylate (average molecular weight: 736): 42 parts by mass • Polyethylene glycol dimethacrylate (average molecular weight: 536): 12 parts by mass • Trimethylolpropane trimethacrylate: 38 parts by mass γ-methacryloyloxypropyl trimethoxysilane: 2 parts by mass Glycidyl methacrylate: 1 part by mass
(§9) Note that the photochromic compound was added to the curable composition so that the amount of the photochromic compound was 0.25 mmol based on 100 g of the total amount of the radical-polymerizable monomers.
(§10) Phenylbis(2,4,6-trimethylbenzoyl)phosphine oxide (photoinitiator: Omnirad 819): 0.3 parts by mass Ethylene bis(oxyethylene) bis[3-(5-tert-butyl-4-hydroxy-m-tolyl)propionate] (stabilizer, Irganox 245): 1 part by mass Bis(1,2,2,6,6-pentamethyl-4-piperidyl) sebacate: 3 parts by mass Leveling agent (L7001) manufactured by Dow Corning Toray Co.,Ltd.: 0.1 part by mass
(§11) First, a thiourethane-based plastic lens having a central thickness of 2 mm and a refractive index of 1.60 was prepared as the optical substrate. Note that this thiourethane-based plastic lens was pre-treated by alkaline etching with a 10% sodium hydroxide aqueous solution at 50°C for 5 minutes, followed by sufficient washing with distilled water.
(§12) A surface of the above-described plastic lens was coated with a moisture-curable primer (product name: TR-SC-P, manufactured by Tokuyama Corporation) at a rotation frequency of 70 rpm for 15 seconds, followed by 1000 rpm for 10 seconds, using a spin coater (1H-DX2, manufactured by MIKASA CO., LTD), Subsequently, about 2 g of the photochromic curable composition obtained above was spin-coated at a rotation frequency of 60 rpm for 40 seconds, followed by 600 rpm for 10 to 20 seconds, to form a photochromic coating layer with a film thickness of 40 µm.
(§13) The lens with the surface coated with the photochromic curable composition (photochromic coating layer) was irradiated with light using a metal halide lamp with an output power of 200 mW/cm^2 in a nitrogen gas atmosphere for 90 seconds to cure the coating film. Subsequently, the lens was further heated at 110°C for 1 hour to prepare a photochromic laminate having a photochromic layer.
In the same manner as in Example 26, photochromic laminates were prepared using the photochromic compounds obtained in Examples 2 to 25.
as §1, with “The higher the residual rate, the higher the color developing durability. The results of Examples 26, 50, and Comparative Examples 1 to 8 are summarized in Table 1, and the results of Examples 27 to 49 are summarized in Tables 2 and 3.” left out

The nature of data set [3]: Accelerated deterioration (xenon weather meter X25, 120 hours) of photochromic laminate prepared by coating method. The note with it: 0.25 mmol per 100 g monomers, A120/A0×100 after 120 hours xenon weather meter.
Text: as §7, §8, §9, §10, §11, §12, §13
as §1, with “The results of Examples 26, 50, and Comparative Examples 1 to 8 are summarized in Table 1, and the results of Examples 27 to 49 are summarized in Tables 2 and 3.” left out

The nature of data set [4]: Photochromic properties of photochromic cured product prepared by kneading method. The conditions noted are these: 0.106 mmol per 100 g monomer. The method, then:
as §1, §2, §3, §4, §5, §6

`CCC1(CC)CCC2(CC1)c1ccccc1-c1c2c2c(c3cc(OC)c(N(c4ccccc4)c4ccccc4)cc13)OC(c1ccc(C)cc1)(c1ccc(N(C)c3ccc(C)cc3)cc1)C=C2` (centres unmarked) [Example 2]: the figures for the Residual rate in data set [1] and in data set [3] were 72% and 67%, respectively. In addition, the Maximum absorption wavelength was determined as 522 nm in data set [2] and 526 nm in data set [4] (1 mm thiourethane cured product, after color development). Also, the A23 in data set [4] (1 mm cured product, 23°C color optical density ε(300)-ε(0)) was 1.41 -.
